What is called inhibition is the change of the read-out against control, counted positive when it falls.

For test [1], the system named is HT29 human colon cancer cells. The test can be described thus: Cell proliferation (MTT) assay, HT29 cells. In kind it is cell-based. Conditions: MTT, 48 hours. The procedure:
6.1 Cell Proliferation (MTT) Assay Single cell suspensions of viable trypsinised cells were seeded into 96-well tissue culture plates at a density of 2×10^3 cells per well in a volume of 100 μl of a suitable culture media supplemented with heat inactivated foetal calf serum (FCS) (e.g., Dulbecco's Modified Eagles Medium (DMEM), with 10% v/v FCS, 1% L-glutamine, 2% (v/v) Hepes, and antibiotics). A set of triplicate wells was prepared for each concentration of the peptide dendrimer being tested. Additional sample wells containing untreated cells or media alone were set up in each treatment plate and processed in parallel as reference controls. A zero-time plate of untreated cells and media-alone wells was simultaneously prepared and an MTT assay carried out on this plate at the time of addition of the kinase inhibitor (i.e., polypeptide or dendrimer) to treatment plates. All plates were cultured for 24 hours before addition of the test dendrimer.
To prepare the MTT solution 100 mg of MTT (3-(4,5-dimethylthiazolyl-2)-2,5-diphenyltetrazolium bromide) (Cat #. M-128, Sigma, St Louis Mo.), is mixed with 20 ml of PBS at pH 7.4. The resulting solution is filter sterilized (0.2 μM syringe filter) and stored at 4° C. protected from light until use. MTT substrate is cleaved in growing cells to yield a water insoluble salt. After solubilisation of the salt crystals, a coloured product is produced the measurement of which allows quantitation of the proliferative activity of the cultured cells.
Appropriate concentrations of the kinase inhibitor were prepared by dilution of freshly prepared sterile 1 mM stock solutions into cell culture media to give a final well volume of 200 μl containing 10% v/v FCS. The zero-plate was processed by addition of MTT at this time. Cell culture was continued for a further 24 or 48 hours before addition of 20 μl of MTT in PBS (5 mg/ml, 0.2 um filter sterilised). The MTT cell proliferation assay measures cell proliferation rate and, in instances where cell viability is compromised, the assay indicates a comparative reduction in cell viability. After a 3 hour incubation in the presence of MTT (5% CO2 in air at 37° C.), plates were centrifuged at 450 g for 5 minutes, supernatant was removed by gentle suction and precipitated tetrazolium salt resuspended into 150 μl DMSO:glycine (0.1M glycine, 0.1M NaCl pH 10.5) (6:1 v/v) solution. Plates were gently vortexed to complete solubilisation of crystalline material and absorbance was read at 550 nm using a microplate reader. Sample data were processed to determine the comparative growth of treated samples relative to untreated controls.
HT29 cells were cultured for 48 hours in the presence of selected dendrimers and proliferation of the cells was assessed by MTT assay essentially as described in Example 6.1. The results were calculated as percentage proliferation of control cells (not treated with dendrimer).

Another test has as its target PKB beta (Homo sapiens, UniProt P31751). The test can be described thus: PKB kinase activity assay. It is filed as biochemical. The procedure:
(§1) In a final reaction volume of 25 μL, PKB(h) (5-10 mU) is incubated with 8 mM MOPS pH 7.0, 0.2 mM EDTA, 30 μM GRPRTSSFAEGKK (SEQ ID No. 26), 10 mM MgAcetate and [γ-33P-ATP] (specific activity approx. 500 cpm/pmol, concentration as required). The reaction is initiated by the addition of the MgATP mix. After incubation for 40 minutes at room temperature, the reaction is stopped by the addition of 5 μL of a 3% phosphoric acid solution. 10 μL of the reaction mixture is then spotted onto a P30 filtermat and washed three times for 5 minutes in 75 mM phosphoric acid and once in methanol prior to drying and scintillation counting.

A further test concerns the target PKB gamma (Homo sapiens, UniProt Q9Y243). Briefly: PKB kinase activity assay. It is filed as biochemical. The procedure: as §1
In the next test the target is human ERK2 (Homo sapiens, UniProt P28482). The test can be described thus: ERK2 kinase activity assay (cell-free). In kind it is biochemical. The method, then: as §1, with “human ERK2” for “PKB(h)”, “25” for “8”, “Tris” for “MOPS”, “7.5, 0.02” for “7.0, 0.2”, “EGTA, 0.33 mg/mL myelin basic protein,” for “EDTA, 30 μM GRPRTSSFAEGKK (SEQ ID No. 26),”, “reaction” for “reaction mixture”

The target of a further test is MEK1 (h) (Homo sapiens, UniProt Q02750). Briefly: MEK1 kinase activity assay. In kind it is biochemical. The procedure:
The reaction is initiated by the addition of the MgATP. After incubation for 40 minutes at room temperature, 5 μL of this incubation mix is used to initiate an ERK2 (m) assay.

Another test deals with PI3K P110δ (Homo sapiens, UniProt O00329). Briefly: PI3K HTRF activity assay. In kind it is biochemical. The procedure:
(§2) In a final reaction volume of 20 μL, the test PI3K is incubated in assay buffer containing 10 μM phosphatidylinositol-4,5-bisphosphate and MgATP. The reaction is initiated by the addition of the MgATP mix. After incubation for 30 minutes at room temperature, the reaction is stopped by the addition of 5 μL of stop solution containing EDTA and biotinylated phosphatidylinositol-3,4,5-trisphosphate. Finally, 5 μL of detection buffer is added (containing europium-labelled anti-GST monoclonal antibody, GST-tagged GRP1 PH domain and streptavidin-allophycocyanin). The test plate is then read in time-resolved fluorescence mode and the homogenous time-resolved fluorescence (HTRF) signal is determined according to the formula HTRF=10000×(Em665 nm/Em620 nm).
(In general: Time-resolved FRET reads energy transfer from a long-lived donor to a nearby acceptor.)

The next test deals with PI3K beta (Homo sapiens, UniProt P42338). Briefly: PI3K HTRF activity assay. In kind it is biochemical. The procedure:
as §2

Chain of PKB gamma (Q9Y243 whole entry): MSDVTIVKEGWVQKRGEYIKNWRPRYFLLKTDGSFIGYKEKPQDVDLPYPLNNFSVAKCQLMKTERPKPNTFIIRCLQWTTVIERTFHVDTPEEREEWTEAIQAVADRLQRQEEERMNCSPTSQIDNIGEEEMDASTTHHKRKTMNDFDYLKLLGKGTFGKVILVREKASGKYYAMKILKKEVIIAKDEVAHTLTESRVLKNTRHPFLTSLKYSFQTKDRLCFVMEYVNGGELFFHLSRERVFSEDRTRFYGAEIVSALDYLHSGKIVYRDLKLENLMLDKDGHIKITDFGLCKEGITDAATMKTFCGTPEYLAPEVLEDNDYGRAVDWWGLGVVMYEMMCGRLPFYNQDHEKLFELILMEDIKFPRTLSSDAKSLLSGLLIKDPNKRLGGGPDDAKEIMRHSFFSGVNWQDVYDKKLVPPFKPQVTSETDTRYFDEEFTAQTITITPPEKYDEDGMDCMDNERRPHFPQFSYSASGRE
Chain of PKB beta (P31751 whole entry): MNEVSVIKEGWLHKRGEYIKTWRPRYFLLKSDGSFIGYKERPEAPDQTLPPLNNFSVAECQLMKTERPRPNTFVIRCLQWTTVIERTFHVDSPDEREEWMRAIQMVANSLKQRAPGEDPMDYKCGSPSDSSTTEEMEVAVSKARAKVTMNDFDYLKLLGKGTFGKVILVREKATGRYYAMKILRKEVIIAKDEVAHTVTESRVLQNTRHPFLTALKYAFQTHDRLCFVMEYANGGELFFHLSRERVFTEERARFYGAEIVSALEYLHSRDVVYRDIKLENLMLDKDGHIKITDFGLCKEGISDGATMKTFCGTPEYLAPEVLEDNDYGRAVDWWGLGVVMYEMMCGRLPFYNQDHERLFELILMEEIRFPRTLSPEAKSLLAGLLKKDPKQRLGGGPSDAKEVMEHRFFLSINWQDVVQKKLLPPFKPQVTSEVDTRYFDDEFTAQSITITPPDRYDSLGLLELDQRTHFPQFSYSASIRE
Chain of PI3K P110δ (O00329 whole entry, the tested form may be a part): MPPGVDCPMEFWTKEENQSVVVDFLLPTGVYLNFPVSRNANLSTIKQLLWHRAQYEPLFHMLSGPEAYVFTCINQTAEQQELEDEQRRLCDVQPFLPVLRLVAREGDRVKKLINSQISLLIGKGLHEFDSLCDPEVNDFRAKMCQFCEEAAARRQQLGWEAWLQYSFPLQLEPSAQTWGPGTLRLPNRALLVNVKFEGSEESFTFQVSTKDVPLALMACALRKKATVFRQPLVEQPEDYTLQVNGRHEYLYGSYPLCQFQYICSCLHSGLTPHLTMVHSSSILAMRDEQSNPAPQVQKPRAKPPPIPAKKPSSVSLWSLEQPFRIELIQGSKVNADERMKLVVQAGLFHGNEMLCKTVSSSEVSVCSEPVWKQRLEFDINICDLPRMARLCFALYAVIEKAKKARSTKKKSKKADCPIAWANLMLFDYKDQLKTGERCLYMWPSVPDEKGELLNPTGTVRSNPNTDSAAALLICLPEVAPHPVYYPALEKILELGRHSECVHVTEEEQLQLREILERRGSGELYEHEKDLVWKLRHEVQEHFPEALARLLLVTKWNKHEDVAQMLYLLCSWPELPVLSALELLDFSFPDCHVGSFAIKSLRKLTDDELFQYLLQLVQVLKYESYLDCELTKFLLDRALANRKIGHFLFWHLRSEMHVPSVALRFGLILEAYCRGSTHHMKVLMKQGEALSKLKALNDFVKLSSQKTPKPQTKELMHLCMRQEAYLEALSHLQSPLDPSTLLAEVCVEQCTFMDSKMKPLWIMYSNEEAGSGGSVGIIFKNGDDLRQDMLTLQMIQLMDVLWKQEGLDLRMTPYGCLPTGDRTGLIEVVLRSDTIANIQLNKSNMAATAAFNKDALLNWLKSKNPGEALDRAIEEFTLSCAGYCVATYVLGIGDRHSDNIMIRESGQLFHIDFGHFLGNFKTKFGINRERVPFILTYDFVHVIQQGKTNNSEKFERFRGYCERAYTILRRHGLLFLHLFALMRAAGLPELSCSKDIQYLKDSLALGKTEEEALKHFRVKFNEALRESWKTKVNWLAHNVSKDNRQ
Chain of PI3K P110δ (P27986 whole entry partner, the tested form may be a part): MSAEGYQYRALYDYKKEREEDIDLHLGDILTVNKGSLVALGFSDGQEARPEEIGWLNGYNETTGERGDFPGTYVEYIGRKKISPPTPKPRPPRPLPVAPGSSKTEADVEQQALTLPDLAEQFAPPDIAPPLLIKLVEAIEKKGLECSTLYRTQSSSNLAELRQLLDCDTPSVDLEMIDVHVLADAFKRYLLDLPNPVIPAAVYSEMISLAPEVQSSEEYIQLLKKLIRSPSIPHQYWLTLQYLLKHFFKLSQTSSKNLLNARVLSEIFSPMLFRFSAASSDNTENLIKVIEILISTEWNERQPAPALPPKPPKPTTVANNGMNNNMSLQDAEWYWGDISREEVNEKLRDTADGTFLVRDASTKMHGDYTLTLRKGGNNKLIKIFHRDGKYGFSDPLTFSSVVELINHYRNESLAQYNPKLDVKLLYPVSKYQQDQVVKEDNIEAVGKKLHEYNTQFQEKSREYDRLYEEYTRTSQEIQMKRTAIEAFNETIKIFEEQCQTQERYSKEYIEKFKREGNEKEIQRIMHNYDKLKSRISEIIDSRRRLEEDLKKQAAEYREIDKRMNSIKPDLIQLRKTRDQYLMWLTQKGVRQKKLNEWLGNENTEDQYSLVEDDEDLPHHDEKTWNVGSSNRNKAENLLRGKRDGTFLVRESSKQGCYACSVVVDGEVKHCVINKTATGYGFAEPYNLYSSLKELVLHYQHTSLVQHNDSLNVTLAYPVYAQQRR
Chain of PI3K beta (P42338 whole entry, species assumed): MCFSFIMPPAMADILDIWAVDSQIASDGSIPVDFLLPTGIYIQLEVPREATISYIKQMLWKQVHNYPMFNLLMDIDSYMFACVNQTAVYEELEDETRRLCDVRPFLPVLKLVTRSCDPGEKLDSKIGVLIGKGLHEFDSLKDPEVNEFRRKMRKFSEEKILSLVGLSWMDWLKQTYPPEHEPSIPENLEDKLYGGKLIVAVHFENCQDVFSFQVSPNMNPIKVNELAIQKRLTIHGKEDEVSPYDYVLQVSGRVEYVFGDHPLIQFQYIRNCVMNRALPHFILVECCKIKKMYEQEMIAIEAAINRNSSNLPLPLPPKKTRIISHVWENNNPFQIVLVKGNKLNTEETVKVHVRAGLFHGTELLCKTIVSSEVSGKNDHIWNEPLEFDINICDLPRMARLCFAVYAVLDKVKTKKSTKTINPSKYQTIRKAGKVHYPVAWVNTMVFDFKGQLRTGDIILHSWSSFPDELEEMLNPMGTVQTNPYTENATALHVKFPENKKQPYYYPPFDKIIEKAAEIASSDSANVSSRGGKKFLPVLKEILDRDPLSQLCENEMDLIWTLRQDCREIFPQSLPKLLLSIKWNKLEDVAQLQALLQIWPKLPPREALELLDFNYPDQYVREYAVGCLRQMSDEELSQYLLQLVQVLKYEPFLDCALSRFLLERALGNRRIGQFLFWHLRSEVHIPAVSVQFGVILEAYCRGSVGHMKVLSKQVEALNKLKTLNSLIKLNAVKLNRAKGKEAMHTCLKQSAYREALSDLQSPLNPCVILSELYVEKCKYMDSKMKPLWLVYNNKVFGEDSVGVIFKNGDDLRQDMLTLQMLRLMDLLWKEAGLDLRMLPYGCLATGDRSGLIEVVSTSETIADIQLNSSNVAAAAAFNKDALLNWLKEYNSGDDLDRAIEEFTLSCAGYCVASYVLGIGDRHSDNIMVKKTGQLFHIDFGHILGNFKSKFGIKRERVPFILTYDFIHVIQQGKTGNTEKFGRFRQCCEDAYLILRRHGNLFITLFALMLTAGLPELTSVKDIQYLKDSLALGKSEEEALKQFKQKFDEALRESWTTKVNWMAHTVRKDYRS
Chain of PI3K beta (P27986 whole entry partner, species assumed): as the sequence (P27986 whole entry partner, the tested form may be a part) above
Chain of human ERK2 (P28482 whole entry): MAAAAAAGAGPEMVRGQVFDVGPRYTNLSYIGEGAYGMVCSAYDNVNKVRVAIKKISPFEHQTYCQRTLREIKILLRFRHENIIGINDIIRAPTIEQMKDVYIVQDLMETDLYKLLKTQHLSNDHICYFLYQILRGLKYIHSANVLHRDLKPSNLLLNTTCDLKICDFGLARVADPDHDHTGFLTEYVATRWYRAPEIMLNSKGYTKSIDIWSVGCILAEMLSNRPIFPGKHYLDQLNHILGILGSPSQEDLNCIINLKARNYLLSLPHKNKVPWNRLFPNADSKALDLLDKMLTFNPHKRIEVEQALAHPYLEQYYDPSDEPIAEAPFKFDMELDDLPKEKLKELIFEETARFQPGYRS

In the case of `CC(C)C[C@H](NC(=O)[C@@H]1CCCN1C(=O)[C@H](CC(N)=O)NC(=O)[C@H](CCCCN)NC(=O)[C@H](C)NC(=O)[C@H](CCCCN)NC(=O)[C@H](CO)NC(=O)[C@@H](N)CCCNC(=N)N)C(=O)N[C@@H](Cc1ccc(O)cc1)C(=O)N[C@@H](CCCNC(=N)N)C(=O)NCCCC[C@H](NC(=O)[C@H](CCCCNC(=O)[C@H](CCCCNC(=O)[C@H](CCCNC(=N)N)NC(=O)[C@H](Cc1ccc(O)cc1)NC(=O)[C@H](CC(C)C)NC(=O)[C@@H]1CCCN1C(=O)[C@H](CC(N)=O)NC(=O)[C@H](CCCCN)NC(=O)[C@H](C)NC(=O)[C@H](CCCCN)NC(=O)[C@H](CO)NC(=O)[C@@H](N)CCCNC(=N)N)NC(=O)[C@H](CCCNC(=N)N)NC(=O)[C@H](Cc1ccc(O)cc1)NC(=O)[C@H](CC(C)C)NC(=O)[C@@H]1CCCN1C(=O)[C@H](CC(N)=O)NC(=O)[C@H](CCCCN)NC(=O)[C@H](C)NC(=O)[C@H](CCCCN)NC(=O)[C@H](CO)NC(=O)[C@@H](N)CCCNC(=N)N)NC(=O)[C@H](CCCCNC(=O)[C@H](CCCNC(=N)N)NC(=O)[C@H](Cc1ccc(O)cc1)NC(=O)[C@H](CC(C)C)NC(=O)[C@@H]1CCCN1C(=O)[C@H](CC(N)=O)NC(=O)[C@H](CCCCN)NC(=O)[C@H](C)NC(=O)[C@H](CCCCN)NC(=O)[C@H](CO)NC(=O)[C@@H](N)CCCNC(=N)N)NC(=O)[C@H](CCCNC(=N)N)NC(=O)[C@H](Cc1ccc(O)cc1)NC(=O)[C@H](CC(C)C)NC(=O)[C@@H]1CCCN1C(=O)[C@H](CC(N)=O)NC(=O)[C@H](CCCCN)NC(=O)[C@H](C)NC(=O)[C@H](CCCCN)NC(=O)[C@H](CO)NC(=O)[C@@H](N)CCCNC(=N)N)C(=O)NCCCC[C@H](NC(=O)[C@H](CCCCNC(=O)[C@H](CCCNC(=N)N)NC(=O)[C@H](Cc1ccc(O)cc1)NC(=O)[C@H](CC(C)C)NC(=O)[C@@H]1CCCN1C(=O)[C@H](CC(N)=O)NC(=O)[C@H](CCCCN)NC(=O)[C@H](C)NC(=O)[C@H](CCCCN)NC(=O)[C@H](CO)NC(=O)[C@@H](N)CCCNC(=N)N)NC(=O)[C@H](CCCCNC(=O)[C@H](CCCCNC(=O)[C@H](CCCNC(=N)N)NC(=O)[C@H](Cc1ccc(O)cc1)NC(=O)[C@H](CC(C)C)NC(=O)[C@@H]1CCCN1C(=O)[C@H](CC(N)=O)NC(=O)[C@H](CCCCN)NC(=O)[C@H](C)NC(=O)[C@H](CCCCN)NC(=O)[C@H](CO)NC(=O)[C@@H](N)CCCNC(=N)N)NC(=O)[C@H](CCCNC(=N)N)NC(=O)[C@H](Cc1ccc(O)cc1)NC(=O)[C@H](CC(C)C)NC(=O)[C@@H]1CCCN1C(=O)[C@H](CC(N)=O)NC(=O)[C@H](CCCCN)NC(=O)[C@H](C)NC(=O)[C@H](CCCCN)NC(=O)[C@H](CO)NC(=O)[C@@H](N)CCCNC(=N)N)NC(=O)[C@H](CCCCNC(=O)[C@H](CCCNC(=N)N)NC(=O)[C@H](Cc1ccc(O)cc1)NC(=O)[C@H](CC(C)C)NC(=O)[C@@H]1CCCN1C(=O)[C@H](CC(N)=O)NC(=O)[C@H](CCCCN)NC(=O)[C@H](C)NC(=O)[C@H](CCCCN)NC(=O)[C@H](CO)NC(=O)[C@@H](N)CCCNC(=N)N)NC(=O)[C@H](CCCNC(=N)N)NC(=O)[C@H](Cc1ccc(O)cc1)NC(=O)[C@H](CC(C)C)NC(=O)[C@@H]1CCCN1C(=O)[C@H](CC(N)=O)NC(=O)[C@H](CCCCN)NC(=O)[C@H](C)NC(=O)[C@H](CCCCN)NC(=O)[C@H](CO)NC(=O)[C@@H](N)CCCNC(=N)N)C(=O)NCCC(N)=O` [Dend 10-10(4)], the “dendrimer concentration required for total kill, HT29 cells” value in test [1] worked out at 10 µM. Further, the “inhibition of proliferation of HT29 cells” value in test [1] is listed as “inhibited”. Also, the inhibition at 1 µM came out at 70% on PKB beta (dendrimer conc. 1 μM, read-out: Percentage (%) kinase inhibition PKB beta); 99% at PKB gamma (dendrimer conc. 1 μM, read-out: Percentage (%) kinase inhibition PKB gamma); 83% at MEK1 (h) (dendrimer conc. 1 μM, read-out: Percentage (%) kinase inhibition MEK1); 56% on PI3K P110δ (dendrimer conc. 1 μM, read-out: Percentage (%) kinase inhibition PI3K P110δ); 61% at PI3K beta (dendrimer conc. 1 μM, read-out: Percentage (%) kinase inhibition PI3K P110β). Further, the remaining activity at 50 µM on human ERK2 (final concentration 50 μM, read-out: ERK2 % activity relative to control) was determined as 47%. Also, at PI3K beta (final concentration 50 μM), the “PIK3 beta % activity relative to control” value worked out at 83%.
On to “Dend 10-10(4) whose RSKAKNPLYR peptides are entirely D-amino acids and pegylated with two ethylene glycol units [Dend 10-10(4)DP]”, for which the “inhibition of proliferation of HT29 cells” value in test [1] is “substantially greater inhibition of proliferation”. Moreover, the “% Kinase inhibition PKB beta” value on PKB beta (20 μM, relative to control) stood at 85%. The “Percentage (%) kinase inhibition PKB beta” value at PKB beta (dendrimer conc. 1 μM) was determined as 68%; on PKB beta (dendrimer conc. 2 μM), 70%; at PKB beta (dendrimer conc. 250 nm) it was 53%; at PKB beta (dendrimer conc. 500 nm), 66%. Further, the “% Kinase inhibition PKB gamma” value on PKB gamma (20 μM, relative to control) is on record as 96%. The “Percentage (%) kinase inhibition PKB gamma” value on PKB gamma (dendrimer conc. 1 μM) amounted to 93%; on PKB gamma (dendrimer conc. 2 μM), 92%; at PKB gamma (dendrimer conc. 250 nm) it was 94%; at PKB gamma (dendrimer conc. 500 nm), 98%. Moreover, at human ERK2 (20 μM, relative to control), the “% Kinase inhibition ERK2” value came to 37%. Moreover, the “% Kinase inhibition MEK1” value on MEK1 (h) (20 μM, relative to control) amounted to 90%. Besides, the “Percentage (%) kinase inhibition MEK1” value worked out at 76% on MEK1 (h) (dendrimer conc. 1 μM), 88% on MEK1 (h) (dendrimer conc. 2 μM), 2% at MEK1 (h) (dendrimer conc. 250 nm) and 34% at MEK1 (h) (dendrimer conc. 500 nm). In addition, the “Percentage (%) kinase inhibition PI3K P110δ” value is given as 39% on PI3K P110δ (dendrimer conc. 1 μM), 56% on PI3K P110δ (dendrimer conc. 2 μM), 9% on PI3K P110δ (dendrimer conc. 250 nm) and 25% on PI3K P110δ (dendrimer conc. 500 nm). In addition, the “PI3K beta % inhibition” value at PI3K beta (20 μM final concentration) was “approx. 92%”. Besides, the “Percentage (%) kinase inhibition PI3K P110β” value on PI3K beta (dendrimer conc. 1 μM) was 39%; on PI3K beta (dendrimer conc. 2 μM), 53%; on PI3K beta (dendrimer conc. 250 nm) it was 28%; at PI3K beta (dendrimer conc. 500 nm) it was 34%.
